# Assay results from patent US20230048888A1, “USE OF TRIAZOLOTRIAZINE DERIVATIVE IN TREATMENT OF DISEASES” (ZHEJIANG VIMGREEN PHARMACEUTICALS, LTD., priority 2019, published 2023).
# Experiments:
# [1] = tested on: 6-OHDA-induced contralateral rotation; test: 6-OHDA-induced rat rotation experiment, first stage (number of rotations); assay type: in vivo, Wistar rats
# Description: After long-term use of levodopa, patients with Parkinson's disease are prone to drug resistance (end-of-dose phenomenon). That is, the duration of its pharmaceutical effect tends to gradually become shorter (shortened opening period), its efficacy will become weaker and weaker, and the symptoms of the patients are becoming more and more uncontrollable. By the combined use with the test compound, the efficacy of levodopa can be restored for patients with Parkinson's disease in the off phase, who have already experienced the end-of-dose phenomenon. The rat model of Parkinson's disease was constructed by fixed-point injection of 6-hydroxydopamine (6-OHDA) to damage the substantia nigra striatum, and then the animals were administrated with levodopa (L-DOPA)/Benserazide (BID) for a long term (3-4 weeks as planned).
# There should be at least an interval of 1 day between rotation tests for respective doses. A total of 6 tests were carried out in the first stage.
# […] injection volume: each rat was injected with 4 μl of 6-OHDA solution (2.5 μg/μl) on the left medial forebrain bundle (MFB).
# Coordinates for injecting […]: by taking the anterior fontanelle as a standard reference point and with reference to the stereotactic map of rat brain, the injection was performed on the left medial forebrain bundle at: anterior(A), −2.5 mm; lateral (L), +2.0 mm; ventral (V), −8.5 mm.
# […] injection speed: the injection speed was 1 μl/min; after injection, the needle was left in situ for 5 min, and then slowly withdrawn at a speed of 1 mm/min; and the wound was then sutured. Grouping and administration were carried out according to the method of experimental design.
# In the first stage, only the number of rotations of the animal was tested, and only the rotation response time was tested in the second stage.
# The test results are represented as “mean±standard deviation”. The data was statistically analyzed by the SPSS16.0 software package. One-way ANOVA, paired sample T test and independent sample T test were used for comparison, with P<0.05 showing a statistical difference.
# [2] = tested on: MPTP-induced Parkinson's disease; test: MPTP-induced mouse Parkinson's disease model, open field test; assay type: in vivo, C57BL/6 mice; conditions: open field 10 minutes
# Description: By injecting the substantia nigra selective toxin MPTP, the mitochondria were intervened to induce lipid peroxidation for disturbing the membrane structure and affecting cell function, and finally the substantia nigra dopaminergic (DA) neurons were selectively destroyed, leading to the massive death of substantia nigra DA neurons, the massive loss of striatum tyrosine hydroxylase-positive fibers, and the significant decrease in the levels of striatum DA and its metabolites 3,4-dihydroxyphenylacetic acid and homovanillic acid. There are also the hyperplasia of the substantia nigra striatal microglia and astrocytes and the damage of locus coeruleus, hypothalamus and other areas, which are basically the same as those in patients with Parkinson's disease. The ameliorative effect of a test substance on the stiffness symptom of Parkinson's disease induced by MPTP in mice was evaluated.
# C57BL/6 male mice of 8 weeks old were selected. The 8-week-old C57 mice were intraperitoneally (i.p.) injected with a vehicle dissolved in saline (normal saline) or MPTP (30 mg/kg body weight) for 5 days to induce the Parkinson's disease.
# At 0.5 hours after the last MPTP injection, two doses (10 mpk and 30 mpk) were administered by intragastric administration.
# At 1.5 hours after the last MPTP injection, an open field test (total travel distance and number of standings) was performed for 10 minutes.
# A20 tumor cells = test: A20 murine lymphoma (B lymphocytes) homotransplantation model; assay type: in vivo, BALB/c mice; conditions: for TGI (%): 50 mg/kg p.o. QD
# Protocol: A20 murine lymphoma (B lymphocyte) homotransplantation model is a classic pharmaceutical effect evaluation model for B lymphocyte cancer. It was constructed by subcutaneously inoculating homogeneous A20 tumor cells into the right ribs of female BALB/c mice by the same species. The test compounds were administrated to evaluate their inhibitory effects on tumor growth in the model.
# A20 tumor cells were cultured in an RPMI 1640 medium containing inactivated 10% fetal bovine serum, 100 U/ml penicillin, 100 μg/ml streptomycin and 0.05 mM 2-mercaptoethanol in an incubator at 37° C. in the presence of 5% CO2; and after the cells grew all over, the tumor cells were divided and passaged in respective flasks every 3 to 4 days. The tumor cells in the logarithmic growth phase were used for in vivo inoculation of tumors.
# The A20 tumor cells resuspended in a serum-free RPMI 1640 culture solution were inoculated subcutaneously at 3×10^5/100 μl to the right ribs of experimental animals. A total of 30 animals were inoculated. On the first day after tumor cell inoculation, 24 animals with a uniform body weight were selected in terms of body weight, and were grouped for dosage, with 12 animals in each group. The specific dosage regimen was carried out according to the experimental design.
# Tumor volume: the tumor volume was measured 3 times a week with a vernier caliper, and the long and short diameters of the tumor were measured. The volume was calculated with a formula as follows:
# volume=0.5×long diameter×short diameter^2.
# Tumor growth inhibition rate (TGI, %)=(1−T/C)×100,
# T/C(%)=(average tumor volume of treatment groups on the current day-average tumor volume of treatment groups on the initial day D0)/(average tumor volume of the control group on the current day-average tumor volume of the control group on the initial day D0)×100.
# Statistical analysis of tumor volume was carried out between groups by the SPSS T-test.
structure (smiles),measurement,setting,value
"CC(=O)O.Nc1nc(NCCc2ccc(NC3COC3)cc2)nc2nc(-c3ccco3)nn12 [Acetate of Compound 22, 2-(furan-2-yl)-N5-(4-(oxetane-3-ylamino)phenethyl)-[1,2,4]triazolo[1,5-a][1,3,5]triazine-5,7-diamine acetate]",Total number of rotations (60 min),[1]; 1 mg/kg oral + L-DOPA (5 mg/kg)/Benserazide (1.25 mg/kg) i.p.,41.4 ± 80.8
same,Total number of rotations (60 min),[1]; 3 mg/kg oral + L-DOPA (5 mg/kg)/Benserazide (1.25 mg/kg) i.p.,36.6 ± 46.3
same,Total number of rotations (60 min),[1]; 10 mg/kg oral + L-DOPA (5 mg/kg)/Benserazide (1.25 mg/kg) i.p.,109.4 ± 205.2
same,Total number of rotations (60 min),[1]; 30 mg/kg oral + L-DOPA (5 mg/kg)/Benserazide (1.25 mg/kg) i.p.,285.2 ± 283.8
same,Total number of rotations (60 min),[1]; 100 mg/kg oral + L-DOPA (5 mg/kg)/Benserazide (1.25 mg/kg) i.p.,379.3 ± 326.4
same,Total number of rotations (60 min),[1]; single oral 1 mg/kg alone,7.7 ± 5.6
same,Total number of rotations (60 min),[1]; single oral 3 mg/kg alone,17.1 ± 18.7
same,Total number of rotations (60 min),[1]; single oral 10 mg/kg alone,11.6 ± 13.9
same,Total number of rotations (60 min),[1]; single oral 30 mg/kg alone,30.7 ± 22.5
same,Total number of rotations (60 min),[1]; single oral 100 mg/kg alone,35.2 ± 18.8
"Nc1nc(NCCc2ccc(NC3COC3)cc2)nc2nc(-c3ccco3)nn12 [Compound 22, 2-(furan-2-yl)-N5-(4-(oxetan-3-ylamino)phenethyl)-[1,2,4]triazolo[1,5-a][1,3,5]triazine-5,7-diamine]",Moving distance (cm),[2]; 10 mg/kg p.o. once,647.0 cm
same,Number of standings,[2]; 10 mg/kg p.o. once,18.3
same,Moving distance (cm),[2]; 30 mg/kg p.o. once,1107.3 cm
same,Number of standings,[2]; 30 mg/kg p.o. once,31.0
same,Clinical abnormalities during the dosage,A20 tumor cells; 50 mg/kg p.o. QD 24 days,no obvious clinical abnormalities were observed
same,TGI (%),A20 tumor cells; Day 6 after tumor inoculation,11.9%
same,TGI (%),A20 tumor cells; Day 8,8.4%
same,TGI (%),A20 tumor cells; Day 10,7.0%
same,TGI (%),A20 tumor cells; Day 13,16.5%
same,TGI (%),A20 tumor cells; Day 15,29.4%
same,TGI (%),A20 tumor cells; Day 17,32.6%
same,TGI (%),A20 tumor cells; Day 20,28.5%
same,TGI (%),A20 tumor cells; Day 22,36.4%
same,TGI (%),A20 tumor cells; Day 24,35.6%
